Earlier results as cited in US12090135B2, “Neutral pH compositions of docetaxel and human serum albumin” (Zhuhai Beihai Biotech Co., Ltd., priority 2016, dated 2024).
“Also recorded” adds a separate entry of the source.

Experiments:
[1] = tested on: microtubule depolymerization

CC(=O)O[C@@]12CO[C@@H]1C[C@H](O)[C@@]1(C)C(=O)[C@H](O)C3=C(C)[C@@H](OC(=O)[C@H](O)[C@@H](NC(=O)OC(C)(C)C)c4ccccc4)C[C@@](O)([C@@H](OC(=O)c4ccccc4)[C@H]21)C3(C)C [Docetaxel]
Potency in inhibiting microtubule depolymerization relative to paclitaxel [1]: about twice as potent as paclitaxel
in vitro binding to plasma proteins (plasma proteins; in three cancer patients): approximately 97%
protein bound (plasma proteins; in vitro studies, mainly to al-acid glycoprotein, albumin, and lipoproteins): about 94%
Water solubility: practically insoluble in water; also recorded: very poor water solubility
